Publication PMC10608817, “Extending the Affinity Range of Weak Affinity Chromatography for the Identification of Weak Ligands Targeting Membrane Proteins” (Molecules, 2023)

Target: T1, Adenosine-A2A Receptor (AA2AR) (Homo sapiens, UniProt P29274)
T1 construct: gene ADORA2A; human AA2AR N-terminally fused to the flag and decahistidine tags, in nanodiscs
Experiment: biochemical
Assay type: binding

T1 sequence (P29274 whole entry, the tested form may be a part): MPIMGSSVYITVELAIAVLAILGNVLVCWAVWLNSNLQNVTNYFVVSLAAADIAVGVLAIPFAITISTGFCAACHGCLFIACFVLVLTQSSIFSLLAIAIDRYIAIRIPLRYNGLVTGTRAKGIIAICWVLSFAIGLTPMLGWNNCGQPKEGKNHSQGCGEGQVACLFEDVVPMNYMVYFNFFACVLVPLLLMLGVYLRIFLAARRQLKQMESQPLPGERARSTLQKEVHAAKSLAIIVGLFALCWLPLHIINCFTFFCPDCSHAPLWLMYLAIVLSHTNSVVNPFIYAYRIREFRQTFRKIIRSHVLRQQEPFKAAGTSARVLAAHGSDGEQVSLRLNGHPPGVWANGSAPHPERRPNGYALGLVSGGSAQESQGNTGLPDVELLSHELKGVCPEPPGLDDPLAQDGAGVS

Row | Compound | Kd [µM]
1 | COc1ccc2[nH]ccc2n1 [F468, 5-methoxy-1H-pyrrolo[3,2-b]pyridine] | 210
2 | COc1cc2cc[nH]c2cn1 [F469, 5-methoxy-1H-pyrrolo[2,3-c]pyridine] | 190
